ChEMBL document CHEMBL4616670, “Phosphine Oxides from a Medicinal Chemist's Perspective: Physicochemical and in Vitro Parameters Relevant for Drug Discovery” (J Med Chem, 2020)
Converted amounts (≈) assume the structure as drawn.

Tests used:
[1] = Equilibrium thermodynamic aqueous solubility of the compound in pH 2 buffer incubated for 24 hrs by UV-spectroscopy based shake flask method; format: physicochemical; details: read-out: Therm_solubility
[2] = 168 h
Description: Chemical stability of the compound in MeOH/NH3 solution at pH >10 assessed as compound decomposition measured after 7 days by UV-RP-HPLC analysis

[3] = physchem; details: octanol/water, pH 2
Description: Octanol/water partition coefficient, log D of the compound at pH 2

[4] = in vitro; details: human, liver microsomes
Description: Half life in human liver microsomes at 1 uM incubated prior to NADPH addition by LC-MS/MS analysis

[5] = in vitro; details: human, liver microsomes; remark: listed apart in the source
Description: Stability in human liver microsomes at 1 uM incubated prior to NADPH addition by LC-MS/MS analysis relative to hepatic blood flow

[6] = physchem; details: pH 6.8 buffer
[7] = physchem; details: MeOH/HCl solution
Description: Chemical stability of the compound in MeOH/HCl solution at pH <1 assessed as compound decomposition measured after 7 days by UV-RP-HPLC analysis

[8] = Equilibrium thermodynamic aqueous solubility of the compound in pH 2.1 buffer incubated for 24 hrs by UV-spectroscopy based shake flask method; format: physicochemical; details: read-out: Therm_solubility
[9] = Chemical stability of the compound in MeOH/HCl solution at pH <1 assessed as compound decomposition measured after 1 day by UV-RP-HPLC analysis; format: physicochemical; details: read-out: Drug degradation
[10] = physchem; details: octanol/water, pH 11
Description: Octanol/water partition coefficient, log D of the compound at pH 11

[11] = physchem; details: pH 6.8 buffer; remark: listed apart in the source
[12] = in vitro; details: human, Caco-2
Description: Permeability across apical to basolateral side in human Caco2 cells measured up to 2 hrs by LC-MS/MS analysis or scintillation counting method

[13] = in vitro; details: human, Caco-2; remark: listed apart in the source
Description: Efflux ratio of permeability in human Caco2 cells measured up to 2 hrs by LC-MS/MS analysis or scintillation counting method

[14] = Basic dissociation constant, pKb of the compound by UV absorption spectra analysis or potentiometric titration technique; format: physicochemical
[15] = Chemical stability of the compound in MeOH/H2O solution at pH >10 assessed as compound decomposition measured after 1 day by UV-RP-HPLC analysis; format: physicochemical; details: read-out: Drug degradation
[16] = Acid dissociation constant, pKa1 of the compound by UV absorption spectra analysis or potentiometric titration technique; format: physicochemical
[17] = Acid dissociation constant, pKa2 of the compound by UV absorption spectra analysis or potentiometric titration technique; format: physicochemical
[18] = Equilibrium thermodynamic aqueous solubility of the compound in pH 2.3 buffer incubated for 24 hrs by UV-spectroscopy based shake flask method; format: physicochemical; details: read-out: Therm_solubility
[19] = Acid dissociation constant, pKa of the compound by UV absorption spectra analysis or potentiometric titration technique; format: physicochemical
[20] = 24 h
Description: Chemical stability of the compound in MeOH/NH3 solution at pH >10 assessed as compound decomposition measured after 1 day by UV-RP-HPLC analysis

[21] = in vitro; details: human, plasma
Description: Protein binding in human plasma

[22] = Equilibrium thermodynamic aqueous solubility of the compound in pH 5.9 buffer incubated for 24 hrs by UV-spectroscopy based shake flask method; format: physicochemical; details: read-out: Therm_solubility

Row | Compound | Drug degradation [2] [%] | logD [3] | half-life at 1 µM [4] [h] | hepatic extraction ratio at 1 µM [5] | solubility thermodynamic at 24 h [6] [mg/mL] | degraded at 168 h [7] [%] | logD [10] | solubility thermodynamic at 24 h [11] [mg/mL] | Papp A→B at 2 h [12] [nm/s] | efflux ratio at 2 h [13] | further results
1 | COP(=O)(O)c1ccc(C(F)(F)F)cc1 | < 10 | 1.3 | > 2.17 | < 0.23 | > 0.06 | < 10 |  |  |  |  | solubility thermodynamic at 24 h [1]: 27.3 mg/mL (≈ 114 mM)
2 | O=P(O)(OCCO)c1ccc(C(F)(F)F)cc1 | < 10 |  |  |  | > 0.063 | < 10 |  |  |  |  | solubility thermodynamic at 24 h [8]: > 28.5 mg/mL
3 | CN1CCCOP1(=O)c1ccc(C(F)(F)F)cc1 (stereo not given) | < 10 | 2.5 | > 2.17 | < 0.23 | 0.053 (≈ 0.19 mM) |  | 1.9 | 7.5 (≈ 26.9 mM) | 640 | 0.5 | degraded at 24 h [9]: > 90%
4 | O=P1(c2ccc(C(F)(F)F)cc2)OCCNCCO1 |  | 0.5 | > 2.17 | < 0.23 | 0.066 (≈ 0.224 mM) | < 10 | 1.5 | > 10 | 630 | 0.7 | pKb [14]: 6; degraded at 24 h [15]: 20%
5 | CC(C)N1CCP(=O)(c2ccc(C(F)(F)F)cc2)CC1 | < 10 | 0.2 | > 2.17 | < 0.23 | > 0.068 | < 10 | 2 | 23 (≈ 75.3 mM) | 840 | 0.5 | pKb [14]: 7
6 | O=P(O)(O)c1ccc(C(F)(F)F)cc1 | < 10 | 0.6 |  |  | > 0.054 | < 10 | < -1.6 |  |  |  | pKa [16]: < 2; pKa [17]: 6.8; solubility thermodynamic at 24 h [18]: 17.8 mg/mL (≈ 78.7 mM)
7 | O=C(O)c1ccc(C(F)(F)F)cc1 |  |  | > 2.17 | < 0.23 | > 0.048 |  |  | > 10 | 150 | 1.3 | pKa [19]: 3.5
8 | O=P1(c2ccc(C(F)(F)F)cc2)OCCCO1 | 70 | 2.1 | > 2.17 | < 0.23 | > 0.066 | < 10 | 1.5 | 8.8 (≈ 33.1 mM) | 950 | 0.4 | Drug degradation [20]: > 90%
9 | CCOP(=O)(O)c1ccc(C(=O)Nc2ccc(C)c(Nc3nccc(-c4cccnc4)n3)c2)cc1 |  | 1 | > 2.17 | < 0.23 | > 0.122 |  | -0.6 | 1.1 (≈ 2.25 mM) | < 1 |  | fraction unbound [21]: 0.046
10 | O=P1(c2ccc(C(F)(F)F)cc2)NCCCO1 (stereo not given) |  | 2 | > 2.17 | < 0.23 | > 0.06 |  | 1.3 |  | 570 | 0.7 | degraded at 24 h [9]: > 90%; Drug degradation [20]: > 90%
11 | CCOP(=O)(O)c1ccc(C(F)(F)F)cc1 | < 10 | 1.9 | > 2.17 | < 0.23 | > 0.064 | < 10 | -0.8 |  | 100 | < 0.1 | solubility thermodynamic at 24 h [8]: 280 mg/mL (≈ 1100 mM)
12 | CN1CCP(=O)(c2ccc(C(F)(F)F)cc2)CC1 | < 10 | 0 | > 2.17 | < 0.23 | > 0.066 | < 10 | 0.9 | > 30 | 520 | 0.7 | pKb [14]: 6.3
13 | O=P1(c2ccc(C(F)(F)F)cc2)NCCCN1 | < 10 |  | > 2.17 | < 0.23 | > 0.061 |  | 1.1 | 12.3 (≈ 46.6 mM) | 420 | 0.7 | degraded at 24 h [9]: > 90%
14 | Cc1ccc(NC(=O)c2ccc(P(C)(C)=O)cc2)cc1Nc1nccc(-c2cccnc2)n1 |  | 0.4 | > 2.17 | < 0.23 | 0.077 (≈ 0.168 mM) |  | 1.5 | 0.02 (≈ 0.0437 mM) | 1 | 16 | fraction unbound [21]: 0.163
15 | CP(=O)(O)c1ccc(C(F)(F)F)cc1 | < 10 | 1.3 | > 2.17 | < 0.23 | > 0.049 | < 10 | -1.3 |  | < 50 |  | pKa [19]: 2; solubility thermodynamic at 24 h [22]: > 8.9 mg/mL
16 | CCOP(=O)(OCC)c1ccc(C(=O)Nc2ccc(C)c(Nc3nccc(-c4cccnc4)n3)c2)cc1 |  | 1.5 | 0.283 | 0.7 | 0.001 (≈ 0.00193 mM) |  | 2.8 | < 0.001 | 180 | 1.6 | fraction unbound [21]: 0.019
17 | Cc1ccc(NC(=O)c2ccc(P(=O)(O)O)cc2)cc1Nc1nccc(-c2cccnc2)n1 |  | 0.4 | > 2.17 | < 0.23 | > 0.115 |  | -1 | 0.7 (≈ 1.52 mM) | < 3 |  | fraction unbound [21]: 0.021
18 | CC1(C)COP(=O)(c2ccc(C(F)(F)F)cc2)OC1 |  | 3.1 | > 2.17 | < 0.23 | > 0.067 | < 10 | 2.6 | 2.8 (≈ 9.52 mM) | 730 | 0.6 | Drug degradation [20]: > 90%
19 | CN1CCCN(C)P1(=O)c1ccc(C(F)(F)F)cc1 | < 10 | 3 | > 2.17 | < 0.23 | > 0.068 |  | 2.7 | 11.1 (≈ 38 mM) | 810 | 0.5 | degraded at 24 h [9]: > 90%
20 | CN1CCN(C)P1(=O)c1ccc(C(F)(F)F)cc1 | < 10 |  |  |  | > 0.064 |  | 2 | > 30 |  |  | degraded at 24 h [9]: > 90%
21 | Cc1ccc(NC(=O)c2ccc(P(C)(=O)O)cc2)cc1Nc1nccc(-c2cccnc2)n1 |  | 0.6 | > 2.17 | < 0.23 | > 0.115 |  | -0.6 | > 10 | < 1 |  | fraction unbound [21]: 0.119
